According to patent US10131652B2, “Pyrimidinyloxy benzene derivatives as herbicides” (E. I. DU PONT DE NEMOURS AND COMPANY, priority 2014, dated 2018):

Assays:
Assay in all cases: Test D pre-/postemergence plant response
Type in all cases: in vivo
[1] = tested on: Italian ryegrass (Lolium multiflorum)
Procedure, shortened: (§1)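 Seeds were planted in a loam and sand blend and sprayed preemergence. In parallel, seedlings grown in peat moss/vermiculite medium were sprayed postemergence at 2 to 18 cm height. Both used a surfactant-containing non-phytotoxic solvent. Greenhouse ratings at 13 to 15 days used a 0–100 control scale.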

[2] = tested on: barnyardgrass (Echinochloa crus-galli)
Procedure, shortened: as §1

[3] = tested on: blackgrass (Alopecurus myosuroides)
Procedure, shortened: as §1

corn (Zea mays) = tested on: corn (Zea mays)
Procedure, shortened: as §1

[4] = tested on: galium (catchweed bedstraw, Galium aparine)
Procedure, shortened: as §1

[5] = tested on: giant foxtail (Setaria faberii)
Procedure, shortened: as §1

[6] = tested on: johnsongrass (Sorghum halepense)
Procedure, shortened: as §1

[7] = tested on: lambsquarters (Chenopodium album)
Procedure, shortened: as §1

[8] = tested on: large (Lg) crabgrass (Digitaria sanguinalis)
Procedure, shortened: as §1

[9] = tested on: morningglory (Ipomoea coccinea)
Procedure, shortened: as §1

[10] = tested on: oilseed rape (Brassica napus)
Procedure, shortened: as §1

[11] = tested on: pigweed (Amaranthus retroflexus)
Procedure, shortened: as §1

[12] = tested on: ragweed (common ragweed, Ambrosia elatior)
Procedure, shortened: as §1

soybean (Glycine max) = tested on: soybean (Glycine max)
Procedure, shortened: as §1

[13] = tested on: velvetleaf (Abutilon theophrasti)
Procedure, shortened: as §1

[14] = tested on: waterhemp (common waterhemp, Amaranthus rudis)
Procedure, shortened: as §1

[15] = tested on: winter wheat (Triticum aestivum)
Procedure, shortened: as §1

[16] = tested on: yellow nutsedge (Cyperus esculentus)
Procedure, shortened: as §1

[17] = Postemergence, 31 g ai/ha, scale 0 to 100 (0 no effect, 100 complete control)
[18] = Postemergence, 62 g ai/ha, scale 0 to 100, 0 no effect, 100 complete control
[19] = Postemergence, 125 g ai/ha, scale 0 to 100, 0 no effect, 100 complete control
[20] = Preemergence, 8 g ai/ha, scale 0 to 100 (0 no effect, 100 complete control)
[21] = Preemergence, 16 g ai/ha, scale 0 to 100 (0 no effect, 100 complete control)
[22] = Preemergence, 31 g ai/ha, scale 0 to 100 (0 no effect, 100 complete control)
[23] = Preemergence, 62 g ai/ha, scale 0 to 100 (0 no effect, 100 complete control)
[24] = Postemergence, 16 g ai/ha, scale 0 to 100 (0 no effect, 100 complete control)

## FC(F)(Cl)c1cc(-c2ccccc2Oc2ncc(Cl)cn2)no1 [Compound 143]
[1]; [17]
  Ryegrass, Italian plant response rating: 0
[1]; [18]
  Plant response rating, Ryegrass, Italian: 0
[1]; [19]
  Plant response rating, Ryegrass, Italian: 15
[1]; [20]
  Plant response rating, Ryegrass, Italian: 0
[1]; [21]
  Plant response rating, Ryegrass, Italian: 5
[1]; [22]
  Plant response rating, Ryegrass, Italian: 5
[1]; [23]
  Plant response rating, Ryegrass, Italian: 70
[2]; [24]
  Barnyardgrass plant response rating: 5
[2]; [17]
  Barnyardgrass plant response rating: 5
[2]; [18]
  Plant response rating, Barnyardgrass: 10
[2]; [19]
  Plant response rating, Barnyardgrass: 65
[2]; [20]
  Plant response rating, Barnyardgrass: 5
[2]; [21]
  Plant response rating, Barnyardgrass: 20
[2]; [22]
  Plant response rating, Barnyardgrass: 70
[2]; [23]
  Plant response rating, Barnyardgrass: 98
[3]; [24]
  Blackgrass plant response rating: 10
[3]; [17]
  Blackgrass plant response rating: 10
[3]; [18]
  Plant response rating, Blackgrass: 20
[3]; [19]
  Plant response rating, Blackgrass: 30
[3]; [20]
  Plant response rating, Blackgrass: 0
[3]; [21]
  Plant response rating, Blackgrass: 10
[3]; [22]
  Plant response rating, Blackgrass: 15
[3]; [23]
  Plant response rating, Blackgrass: 90
Corn (Zea mays); [24]
  Corn plant response rating: 5
Corn (Zea mays); [17]
  Corn plant response rating: 5
Corn (Zea mays); [18]
  Plant response rating, Corn: 5
Corn (Zea mays); [19]
  Plant response rating, Corn: 10
Corn (Zea mays); [20]
  Plant response rating, Corn: 0
Corn (Zea mays); [21]
  Plant response rating, Corn: 0
Corn (Zea mays); [22]
  Plant response rating, Corn: 5
Corn (Zea mays); [23]
  Plant response rating, Corn: 100
[4]; [17]
  Galium plant response rating: 70
[4]; [18]
  Plant response rating, Galium: 70
[4]; [19]
  Plant response rating, Galium: 100
[4]; [20]
  Plant response rating, Galium: 10
[4]; [21]
  Plant response rating, Galium: 10
[4]; [22]
  Plant response rating, Galium: 80
[4]; [23]
  Plant response rating, Galium: 80
[5]; [24]
  Foxtail, Giant plant response rating: 5
[5]; [17]
  Foxtail, Giant plant response rating: 10
[5]; [18]
  Plant response rating, Foxtail, Giant: 10
[5]; [19]
  Plant response rating, Foxtail, Giant: 50
[5]; [20]
  Plant response rating, Foxtail, Giant: 40
[5]; [21]
  Plant response rating, Foxtail, Giant: 85
[5]; [22]
  Plant response rating, Foxtail, Giant: 100
[5]; [23]
  Plant response rating, Foxtail, Giant: 100
[6]; [17]
  Johnsongrass plant response rating: 5
[6]; [18]
  Plant response rating, Johnsongrass: 30
[6]; [19]
  Plant response rating, Johnsongrass: 30
[6]; [20]
  Plant response rating, Johnsongrass: 35
[6]; [21]
  Plant response rating, Johnsongrass: 15
[6]; [22]
  Plant response rating, Johnsongrass: 60
[6]; [23]
  Plant response rating, Johnsongrass: 80
[7]; [17]
  Lambsquarters plant response rating: 80
[7]; [18]
  Plant response rating, Lambsquarters: 98
[7]; [19]
  Plant response rating, Lambsquarters: 100
[7]; [20]
  Plant response rating, Lambsquarters: 25
[7]; [21]
  Plant response rating, Lambsquarters: 70
[7]; [22]
  Plant response rating, Lambsquarters: 85
[7]; [23]
  Plant response rating, Lambsquarters: 85
[8]; [24]
  Crabgrass, Large plant response rating: 10
[8]; [17]
  Crabgrass, Large plant response rating: 10
[8]; [18]
  Plant response rating, Crabgrass, Large: 15
[8]; [19]
  Plant response rating, Crabgrass, Large: 35
[8]; [20]
  Plant response rating, Crabgrass, Large: 60
[8]; [21]
  Plant response rating, Crabgrass, Large: 98
[8]; [22]
  Plant response rating, Crabgrass, Large: 100
[8]; [23]
  Plant response rating, Crabgrass, Large: 100
[9]; [18]
  Plant response rating, Morningglory: 90
[9]; [19]
  Plant response rating, Morningglory: 100
[9]; [20]
  Plant response rating, Morningglory: 0
[9]; [21]
  Plant response rating, Morningglory: 10
[9]; [22]
  Plant response rating, Morningglory: 35
[9]; [23]
  Plant response rating, Morningglory: 55
[10]; [17]
  Oilseed Rape plant response rating: 50
[10]; [18]
  Plant response rating, Oilseed Rape: 60
[10]; [19]
  Plant response rating, Oilseed Rape: 65
[10]; [20]
  Plant response rating, Oilseed Rape: 0
[10]; [21]
  Plant response rating, Oilseed Rape: 0
[10]; [22]
  Plant response rating, Oilseed Rape: 85
[10]; [23]
  Plant response rating, Oilseed Rape: 95
[11]; [17]
  Pigweed plant response rating: 90
[11]; [18]
  Plant response rating, Pigweed: 100
[11]; [19]
  Plant response rating, Pigweed: 100
[11]; [20]
  Plant response rating, Pigweed: 90
[11]; [21]
  Plant response rating, Pigweed: 100
[11]; [22]
  Plant response rating, Pigweed: 100
[11]; [23]
  Plant response rating, Pigweed: 100
[12]; [17]
  Ragweed plant response rating: 5
[12]; [18]
  Plant response rating, Ragweed: 10
[12]; [19]
  Plant response rating, Ragweed: 30
[12]; [20]
  Plant response rating, Ragweed: 0
[12]; [21]
  Plant response rating, Ragweed: 0
[12]; [22]
  Plant response rating, Ragweed: 30
[12]; [23]
  Plant response rating, Ragweed: 40
Soybean (Glycine max); [17]
  Soybean plant response rating: 30
Soybean (Glycine max); [18]
  Plant response rating, Soybean: 60
Soybean (Glycine max); [19]
  Plant response rating, Soybean: 60
Soybean (Glycine max); [20]
  Plant response rating, Soybean: 0
Soybean (Glycine max); [21]
  Plant response rating, Soybean: 5
Soybean (Glycine max); [22]
  Plant response rating, Soybean: 10
Soybean (Glycine max); [23]
  Plant response rating, Soybean: 25
[13]; [17]
  Velvetleaf plant response rating: 30
[13]; [18]
  Plant response rating, Velvetleaf: 50
[13]; [19]
  Plant response rating, Velvetleaf: 65
[13]; [20]
  Plant response rating, Velvetleaf: 35
[13]; [21]
  Plant response rating, Velvetleaf: 30
[13]; [22]
  Plant response rating, Velvetleaf: 75
[13]; [23]
  Plant response rating, Velvetleaf: 85
[14]; [17]
  Waterhemp plant response rating: 100
[14]; [18]
  Plant response rating, Waterhemp: 100
[14]; [19]
  Plant response rating, Waterhemp: 100
[14]; [20]
  Plant response rating, Waterhemp: 95
[14]; [21]
  Plant response rating, Waterhemp: 100
[14]; [22]
  Plant response rating, Waterhemp: 98
[14]; [23]
  Plant response rating, Waterhemp: 100
[15]; [17]
  Wheat plant response rating: 5
[15]; [18]
  Plant response rating, Wheat: 5
[15]; [19]
  Plant response rating, Wheat: 5
[15]; [20]
  Plant response rating, Wheat: 0
[15]; [21]
  Plant response rating, Wheat: 0
[15]; [22]
  Plant response rating, Wheat: 0
[15]; [23]
  Plant response rating, Wheat: 0
[16]; [17]
  Nutsedge, Yellow plant response rating: 5
[16]; [18]
  Plant response rating, Nutsedge, Yellow: 5
[16]; [19]
  Plant response rating, Nutsedge, Yellow: 5
[16]; [20]
  Plant response rating, Nutsedge, Yellow: 0
[16]; [21]
  Plant response rating, Nutsedge, Yellow: 0
[16]; [22]
  Plant response rating, Nutsedge, Yellow: 0
[16]; [23]
  Plant response rating, Nutsedge, Yellow: 5
